Test results taken from paper PMC5149029, “New Aspects of Silibinin Stereoisomers and their 3-O-galloyl Derivatives on Cytotoxicity and Ceramide Metabolism in Hep G2 hepatocarcinoma Cell Line” (Iranian Journal of Pharmaceutical Research : IJPR, 2016).

Tested on: Hep G2 cells
Test: Quantifying of total ceramide (HPLC, NDA derivatisation)
Assay type: cell-based, human
Settings: for Ceramide content with respect to control: Hep G2, 50 µM and higher concentrations
Experimental: The cell line was grown in RPMI-1640 medium supplemented with L-glutamine 2 mM, HEPESNa 25 mM, penicillin 100 U/mL, streptomycin 100 μg/mL and 10% […] (FBS) at 37 °C in a humidified atmosphere containing 5% CO2. Hep G2 cells were seeded at 1 × 10^6 cells/mL and sub cultured every 2–3 days after 60–80% confluence was reached. To prepare the lysates cells attached to the culture plate were scraped off with a cell scraper and collected in a 1.5 mL tube by centrifugation. The cell pellets were rinsed with PBS, suspended in sterile water, and then lysed by sonication. For each experiment, the cells were treated separately with increasing concentrations of silibinin derivatives (0, 25, 50, 75, 100, 125, 150, 175 and 200 μM) and incubated for 48 h.
Sample (3 µL of cell extract cell lysate) was mixed with 3 µL of an ACDase assay solution (0.2 M citrate–phosphate buffer, pH 4.5, 0.3 M NaCl, 0.2% Igepal CA-630, 10% FBS, 50 ng/µL ACDase) and incubated at 37 °C for 1 h. The reaction was stopped by adding ethanol (1:5) and centrifuged for 5 min at 13,000 × g. 10 µL of the supernatant was transferred into 20 µL of 25 mM sodium borate buffer (pH 9.0) containing 1.25 mM sodium cyanide and 1.25 mM NDA. The reaction mixture was incubated at 50 °C for 10min, diluted with ethanol (1:4), and centrifuged for 5 min at 13,000 × g. 5 µL of the supernatant was applied to high-performance liquid chromatography (HPLC) for analysis. The HPLC system consisted of Waters 600 S controller, 616 pump, 474 scanning fluorescence detector, 717 auto sampler (Waters, Milford, MA) and BetaBasic-C18 (20 cm × 4.6 mm) column with 3 µM particle size (Thermo Electron, Bellefonte, PA) which was not temperature regulated. All chromatographic procedures were carried out at room temperature using a mobile phase of 90% methanol at a flow rate of 1.0 mL/min. The fluorescent derivatives were monitored at the excitation wavelength of 252 nm and the emission wavelength of 483 nm ([35]). […]

Structure (SMILES)	Ceramide content with respect to control	Maximum ceramide level compared to control (Hep G2, 200 µM (the highest dose))
COc1cc([C@@H]2Oc3cc([C@H]4Oc5cc(O)cc(O)c5C(=O)[C@@H]4OC(=O)c4cc(O)c(O)c(O)c4)ccc3O[C@H]2CO)ccc1O [SGB, 3-O-galloyl silybin B]	significant rises	approximately 3.7 fold
COc1cc([C@H]2Oc3cc([C@H]4Oc5cc(O)cc(O)c5C(=O)[C@@H]4OC(=O)c4cc(O)c(O)c(O)c4)ccc3O[C@@H]2CO)ccc1O [SGA, 3-O-galloyl silybin A]	significant rises	–
